Measurements: patent EP4725954A1, “MODIFIED PEPTIDES SUCH AS POLYPEPTIDES LA-19 AND TM-19 HAVING ANTI-AGING AND REPAIRING EFFECTS AND USE THEREOF” (Anhui Dexin Huahai Biological Technology Co. Ltd., priority 2023, dated 2025)
Like-named read-outs stand apart in the source and are kept apart here. Where no end group is shown, it is not given here.

Assays:
[1] = system: Human keratinocytes (HaCaT cells); experiment: Cytotoxicity test of the polypeptides on keratinocytes (CCK-8); conditions: in words; for effect on cell growth: compared to the blank group
Description: (§3) Human keratinocytes (HaCaT cells, Nanjing Saihongrui Biotechnology Co., Ltd.).
(§4) Cell culture conditions: constant temperature and humidity incubator (37°C, 95% air, 5% carbon dioxide), 90% dulbecco's modified eagle medium (DMEM) high-glucose medium + 10% fetal bovine serum (Nanjing BioChannel Biotechnology Co., Ltd).
(§5) A cell culture flask was taken out from the cell incubator, observed under a microscope, and the cells were in the logarithmic growth phase. In a clean bench, the medium was discarded, the cells were rinsed with 2 mL of phosphate buffer saline (PBS) and discarded; after repeating the above process once, 2 mL of 0.25% trypsin was added for digestion. The digestion was terminated by adding a corresponding volume of serum-containing medium, and the cells were transferred to a 15 mL conical centrifuge tube and centrifuged at 1000 rpm for 5 minutes. The serum-containing medium was resuspended in a resuspension volume of 2 mL. The cells were counted and calculated. The cells were then diluted, and plated; then the diluted cell suspension was taken, then the 96-well plate was paved with 10^4 cells/well, and the edge wells were filled with PBS. The well plate was taken out from the cell incubator, the medium was discarded, the well-plate of the administration group was added with the corresponding drugs and placed into the cell incubator for incubation for 48 hours. On the day of detection, the 96-well plate was taken out from the cell incubator, and added with 10 µL of a CCK-8 reagent per well in the clean bench, and then quickly placed into the cell incubator for 60 minutes, and the absorbance was measured with a microplate reader and the absorbance was measured at OD 450 nm. The average reading of the blank group was taken, and the numerical value of each group was divided by the average value to obtain the change in cell viability. Results are expressed as Mean ± SEM, compared with the blank group, *P<0.05 denotes a significant difference, **P<0.01, ***P<0.001, and ****P<0.0001 denote very significant differences.

[2] = system: Human keratinocytes (HaCaT cells)
Description: as §3, §4, §5

IL-6 = experiment: Anti-inflammatory activity test on keratinocytes: IL-6 ELISA; assay type: cell-based, Human; conditions: 10 µM; UVB 30 mJ/cm^2, HaCaT supernatant; blank 10.619, model 18.622; Mean ± SEM
Description: (§1) Interleukin-6 ELISA assay kit (Shanghai Beyotime Biotechnology Co., Ltd.); tumor necrosis factor α ELISA assay kit (Shanghai Beyotime Biotechnology Co., Ltd.); 6-well plate (Wuxi NEST Biotechnology Co., Ltd.); and palmitoyl tetrapeptide-7 (Shenzhen Jianyuan Pharmaceutical Technology Co., Ltd.). Other experimental materials and instruments are the same as those in Examples 1, 2, and 3.
(§2) The cells were counted and calculated. […] After 24 hours of incubation, cell UV modeling was performed. The UVB lamp tube was turned on, and the radiation intensity was measured with a UV irradiance meter. When the radiation intensity reached 500 µW/cm^2, the uncovered 6-well plate was placed and irradiated for 1 minute such that the radiation dose was up to 30 mJ/cm^2. At the end of the radiation, the 6-well plate was covered and placed into the cell incubator.

TNF-α = experiment: Anti-inflammatory activity test on keratinocytes: TNF-α ELISA; assay type: cell-based, Human; conditions: 10 µM; UVB 30 mJ/cm^2, HaCaT supernatant; blank 2.890, model 10.812; Mean ± SEM
Description: as §1, §2

**Q.** Ac-LQSSLRALRQMGGGTKAAA [P6] was tested. Which “effect on cell growth” value [1] did it give?
**A.** Its value is “do not significantly inhibit cell growth”.

**Q.** With Ac-LQTSLRALRQIGGGTKAAA [P9] as the substance, how does the “effect on cell growth” value [1] read?
**A.** The value was “do not significantly inhibit cell growth”.

**Q.** With GGGLQSSLRALRQM [P4] as the substance, how does the “effect on cell growth” value [1] read?
**A.** The value was “do not significantly inhibit cell growth”.

**Q.** LQSSLRALRQM [P5] was tested. Which “effect on cell growth” value [2] did it give?
**A.** The value was “do not significantly inhibit cell growth”.

**Q.** Which “effect on cell growth” value [1] does the source give for LQSSLRALRQMGGG [P3] here?
**A.** Its value is “do not significantly inhibit cell growth”.

**Q.** LQSSLRALRQMGGGTKAAA [LA-19] was tested. Which toxicity to keratinocytes [1] did it give?
**A.** The toxicity to keratinocytes was “no obvious toxicity to keratinocytes”.

**Q.** And the “effect on cell growth” value [1]?
**A.** The value was “do not significantly inhibit cell growth”.

**Q.** How did the “effect on cell growth” value [1] turn out when LQSSLRALRQMGGGTKAAA-NH2 [P7] was run?
**A.** Its value is “do not significantly inhibit cell growth”.

**Q.** How did the “effect on cell growth” value [1] turn out when LQTSLRALRQIGGGTKAAA [P8] was run?
**A.** The value was “do not significantly inhibit cell growth”.

**Q.** Which “effect on cell growth” value [1] does the source give for TKAAA [Acein, reference compound] here?
**A.** The value was “do not significantly inhibit cell growth”.

**Q.** Which “effect on cell growth” value [1] does the source give for TKAAAGGGLQSSLRALRQM [TM-19] here?
**A.** Its value is “slightly inhibit cell growth at low concentrations but promote cell proliferation at high concentrations”.

**Q.** How did the “effect on cell growth” value [1] turn out when TKAAAGGGLQTSLRALRQI [P10] was run?
**A.** Its value is “do not significantly inhibit cell growth”.

**Q.** What does the source list for palmitoyl tetrapeptide-7?
**A.** IL-6 activity (pg/mgprot) (IL-6): 13.901±1.356 pg/mgprot; TNF-α activity (pg/mgprot) (TNF-α): 6.832±2.461 pg/mgprot
